In US20150335647A1, “Methods of Increasing Liver Proliferation” (priority 2009, published 2015):

What was measured:
[1] = Systemic toxicity of dorsomorphin administration for up to 60 days
Description: To provide clinical relevance for the findings discussed above, eight week old mice were injected with an antagonist of BMP signaling. Dorsomorphin was injected for 48 hours prior to, during, and after ⅔ hepatectomy. Specifically, dorsomorphin was injected multiple times at 24 and 12 hours prior to hepatectomy, at the time of hepatectomy, and 12, 24, and 36 hours after hepatectomy.

[2] = test system: osteogenic differentiation induced by BMP4 or BMP6; settings: induced by BMP4 or BMP6 in vitro; compared with noggin; cited from earlier work
MAPK p38 activation = settings: cited from earlier work
BMP signaling = settings: in vivo; cited from earlier work
[3] = test system: type I BMP receptors, namely, ALK2, ALK3, and ALK6; settings: cited from earlier work
[4] = test system: BMP-mediated SMAD 1, 5 and 8 phosphorylation; settings: cited from earlier work
hepatocyte proliferation = assay: BrdU hepatocyte proliferation after 2/3 hepatectomy in mice treated with dorsomorphin; format: in vivo; settings: 8 week old mice, dorsomorphin 10 mg/kg vs saline, injected 24 and 12 h prior to, at, and 12, 24, 36 h after 2/3 hepatectomy; measured at 36 and 48 hours
Description: Animals were used to examine the role of various members of BMP signaling in restoration of liver mass after injury. Mice were subjected to two-thirds (“⅔”) or massive eighty percent (80%) hepatectomy. Surgery was performed on adult mice at least 8 weeks of age. For surgery, mice were anesthetized with 100 mg/kg ketamine and 10 mg/kg xylazine which were injected intraperitoneally. […] This was repeated until the subject was unconscious. Hair was removed from the surgical site using a clipper and the skin was disinfected using aseptic technique and betadyne. The scrubbed area was rinsed with 70% alcohol. To avoid hypothermia, the animal was not wetted more than necessary. An incision was made with a sterile scissors at the level of the xiphiod approximately one centimeter toward the umbilicus. The peritoneum was entered with a scissors and the tip of the xiphoid was excised. For ⅔ hepatectomy, the liver was exteriorized through the incision via gentle pressure on the flanks over an area previously prepped. A 4-0 silk ligature was placed around the exteriorized portion of the liver and tied. The anterior portion of the liver distal to the tie was then excised. A 4-0 proline was used to close the fascia and a 4-0 nylon was used to close the skin in a subcuticular fashion. […]

c1cc(-c2cnn3cc(-c4ccc(OCCN5CCCCC5)cc4)cnc23)ccn1 [Dorsomorphin]
effect on bone marrow [1]: no effect
effect on growth [1]: no effect
effect on white blood cell count [1]: no effect
systemic toxicity [1]: did not produced systemic toxicity
inhibition of osteogenic differentiation [2]: more potent than that seen with treatment with noggin
MAPK p38 activation (MAPK p38 activation): without affecting
dorsalization in zebrafish embryos (BMP signaling): effectively promote dorsalization
inhibition of type I BMP receptors ALK2, ALK3, and ALK6 [3]: selectively inhibiting
BMP-mediated SMAD 1, 5 and 8 phosphorylation [4]: block
hepatocyte proliferation (BrdU incorporation) (hepatocyte proliferation): marked enhancement of hepatocyte proliferation
